What was measured:
Assay in all cases: Test C pre/postemergence
Format in all cases: in vivo
Details in all cases: Postemergence
[1] = test system: Surinam grass (Brachiaria decumbens)
From the text: (§1) Seeds or nutlets of plant species selected from bermudagrass (Cynodon dactylon), Surinam grass (Brachiaria decumbens), cocklebur (Xanthium strumarium), corn (Zea mays), crabgrass (Digitaria sanguinalis), woolly cupgrass (Eriochloa villosa), giant foxtail (Setaria faberii), goosegrass (Eleusine indica), johnsongrass (Sorghum halepense), kochia (Kochia scoparia), lambsquarters (Chenopodium album), morningglory (Ipomoea coccinea), eastern black nightshade (Solanum ptycanthum), yellow nutsedge (Cyperus esculentus), pigweed (Amaranthus retroflexus), common ragweed (Ambrosia elatior), soybean (Glycine max), common (oilseed) sunflower (Helianthus annuus), and velvetleaf (Abutilon theophrasti) were planted and treated preemergence with test chemicals formulated in a non-phytotoxic solvent mixture which included a surfactant.
(§2) At the same time, plants selected from these crop and weed species and also winter barley (Hordeum vulgare), blackgrass (Alopecurus myosuroides), canarygrass (Phalaris minor), chickweed (Stellaria media), downy brome (Bromus tectorum), green foxtail (Setaria viridis), Italian ryegrass (Lolium multiflorum), wheat (Triticum aestivum), wild oat (Avena fatua) and windgrass (Apera spica-venti) were treated with postemergence applications of some of the test chemicals formulated in the same manner. Plants ranged in height from 2 to 18 cm (1- to 4-leaf stage) for postemergence treatments. Plant species in the flooded paddy test consisted of rice (Oryza sativa), umbrella sedge (Cyperus difformis), duck salad (Heteranthera limosa) and barnyardgrass (Echinochloa crus-galli) grown to the 2-leaf stage for testing. Treated plants and controls were maintained in a greenhouse for 12 to 14 days, after which time all species were compared to controls and visually evaluated. Plant response ratings, summarized in Table C, are based on a scale of 0 to 100 where 0 is no effect and 100 is complete control. A dash (-) response means no test result.

[2] = test system: cocklebur (Xanthium strumarium)
From the text: as §1, §2

corn (Zea mays) = test system: corn (Zea mays)
From the text: as §1, §2

[3] = test system: crabgrass (Digitaria sanguinalis)
From the text: as §1, §2

[4] = test system: giant foxtail (Setaria faberii)
From the text: as §1, §2

[5] = test system: johnsongrass (Sorghum halepense)
From the text: as §1, §2

kochia (Kochia scoparia) = test system: kochia (Kochia scoparia)
From the text: as §1, §2

[6] = test system: lambsquarters (Chenopodium album)
From the text: as §1, §2

[7] = test system: morningglory (Ipomoea coccinea)
From the text: as §1, §2

soybean (Glycine max) = test system: soybean (Glycine max)
From the text: as §1, §2

[8] = 125 g ai/ha, scale 0 to 100 (0 no effect, 100 complete control)

Compound: CCOC(=O)c1nc(-c2ccc(I)cc2)nc(N)c1Cl [Compound 133]
- Plant response rating (scale of 0 to 100), Surinam Grass ([1]; 16 g ai/ha): 35
- Plant response rating (scale of 0 to 100), Surinam Grass ([1]; 31 g ai/ha): 45
- Plant response rating (scale of 0 to 100), Surinam Grass ([1]; 62 g ai/ha): 55
- Surinam Grass plant response rating [1, 8]: 70
- Plant response rating (scale of 0 to 100), Cocklebur ([2]; 16 g ai/ha): 75
- Plant response rating (scale of 0 to 100), Cocklebur ([2]; 31 g ai/ha): 85
- Plant response rating (scale of 0 to 100), Cocklebur ([2]; 62 g ai/ha): 95
- Cocklebur plant response rating [2, 8]: 95
- Plant response rating (scale of 0 to 100), Corn (corn (Zea mays); 16 g ai/ha): 35
- Plant response rating (scale of 0 to 100), Corn (corn (Zea mays); 31 g ai/ha): 40
- Plant response rating (scale of 0 to 100), Corn (corn (Zea mays); 62 g ai/ha): 60
- Corn plant response rating (corn (Zea mays); [8]): 80
- Plant response rating (scale of 0 to 100), Crabgrass ([3]; 16 g ai/ha): 50
- Plant response rating (scale of 0 to 100), Crabgrass ([3]; 31 g ai/ha): 75
- Plant response rating (scale of 0 to 100), Crabgrass ([3]; 62 g ai/ha): 75
- Crabgrass plant response rating [3, 8]: 80
- Plant response rating (scale of 0 to 100), Foxtail, Giant ([4]; 16 g ai/ha): 15
- Plant response rating (scale of 0 to 100), Foxtail, Giant ([4]; 31 g ai/ha): 60
- Plant response rating (scale of 0 to 100), Foxtail, Giant ([4]; 62 g ai/ha): 70
- Foxtail, Giant plant response rating [4, 8]: 75
- Plant response rating (scale of 0 to 100), Johnsongrass ([5]; 16 g ai/ha): 70
- Plant response rating (scale of 0 to 100), Johnsongrass ([5]; 31 g ai/ha): 85
- Plant response rating (scale of 0 to 100), Johnsongrass ([5]; 62 g ai/ha): 90
- Johnsongrass plant response rating [5, 8]: 95
- Plant response rating (scale of 0 to 100), Kochia (kochia (Kochia scoparia); 16 g ai/ha): 75
- Plant response rating (scale of 0 to 100), Kochia (kochia (Kochia scoparia); 31 g ai/ha): 80
- Plant response rating (scale of 0 to 100), Kochia (kochia (Kochia scoparia); 62 g ai/ha): 85
- Kochia plant response rating (kochia (Kochia scoparia); [8]): 85
- Plant response rating (scale of 0 to 100), Lambsquarters ([6]; 16 g ai/ha): 95
- Plant response rating (scale of 0 to 100), Lambsquarters ([6]; 31 g ai/ha): 95
- Plant response rating (scale of 0 to 100), Lambsquarters ([6]; 62 g ai/ha): 95
- Lambsquarters plant response rating [6, 8]: 100
- Plant response rating (scale of 0 to 100), Morningglory ([7]; 16 g ai/ha): 80
- Plant response rating (scale of 0 to 100), Morningglory ([7]; 31 g ai/ha): 90
- Plant response rating (scale of 0 to 100), Morningglory ([7]; 62 g ai/ha): 100
- Morningglory plant response rating [7, 8]: 100
- Plant response rating (scale of 0 to 100), Soybean (soybean (Glycine max); 16 g ai/ha): 95
- Plant response rating (scale of 0 to 100), Soybean (soybean (Glycine max); 31 g ai/ha): 95
- Plant response rating (scale of 0 to 100), Soybean (soybean (Glycine max); 62 g ai/ha): 100
- Soybean plant response rating (soybean (Glycine max); [8]): 100
